Measured values reported in patent US9708314B2, “Heterocyclic amide compound” (NISSAN CHEMICAL INDUSTRIES, LTD., priority 2013, dated 2017).

Assays:
Format in all cases: in vivo
Brassica campestris L. = experiment: Test Example 4: effect on crop by application to foliage (diluvial soil, plastic box); settings: foliage application, 320 g/ha
How it was run: (§1)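 Seeds sown in sterilized diluvial soil, covered ~1.5 cm, grown 14 days in greenhouse at 25° C. to 30° C. Emulsion formulation diluted in water to set rate (g/ha) and sprayed onto stems and leaves. Effect scored visually 3 weeks later on 0–5 scale (5 = ≥90% herbicidal ratio, 0 = ≤5%).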

[1] = test system: Beta vulgaris ssp. vulgaris; experiment: as above; settings: foliage application, 320 g/ha
How it was run: as §1

Glycine max = experiment: as above; settings: foliage application, 320 g/ha
How it was run: as §1

Zea mays = experiment: as above; settings: foliage application, 320 g/ha
How it was run: as §1

[2] = test system: directly sowed Oryza sativa; experiment: as above; settings: foliage application, 320 g/ha
How it was run: as §1

Triticum aestivum = experiment: as above; settings: foliage application, 320 g/ha
How it was run: as §1

[3] = test system: transplanted Oryza sativa; experiment: Test Example 1: effect on crop, application before weed generation in submerged conditions; settings: Application herbicide amount 320 g/ha; Seventeenth Table
How it was run: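 Pre-emergence water-surface application under 4 cm flooding, same day as sowing, with rice transplanted at 2.5 leaf stage. Dose given as g/ha. Plants grown at 25° C. to 30° C. and rated three weeks later on a 0 (≤5%) to 5 (≥90%) herbicidal-ratio scale.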

Veronica persica = experiment: Test Example 4: herbicidal effect by application to foliage (diluvial soil, plastic box); settings: foliage application, 320 g/ha
How it was run: as §1

Setaria viridis = experiment: as above; settings: foliage application, 320 g/ha
How it was run: as §1

[4] = test system: Echinochloa crus-galli var. crus-galli; experiment: as above; settings: foliage application, 320 g/ha
How it was run: as §1

Stellaria media = experiment: as above; settings: foliage application, 320 g/ha
How it was run: as §1

Alopecurus myosuroides = experiment: as above; settings: foliage application, 320 g/ha
How it was run: as §1

Chenopodium album = experiment: as above; settings: foliage application, 320 g/ha
How it was run: as §1

Avena fatua = experiment: as above; settings: foliage application, 320 g/ha
How it was run: as §1

Galium spurium = experiment: as above; settings: foliage application, 320 g/ha
How it was run: as §1

Digitaria ciliaris = experiment: as above; settings: foliage application, 320 g/ha
How it was run: as §1

Abutilon theophrasti = experiment: as above; settings: foliage application, 320 g/ha
How it was run: as §1

Apera spica-venti. = experiment: as above; settings: foliage application, 320 g/ha
How it was run: as §1

Lolium multiflorum Lam. = experiment: as above; settings: foliage application, 320 g/ha
How it was run: as §1

Amaranthus retroflexus = experiment: as above; settings: foliage application, 320 g/ha
How it was run: as §1

Row | SMILES | g (Brassica campestris L.) effect on crop grade (Brassica campestris L.) | f (Beta vulgaris ssp. vulgaris) effect on crop grade [1] | c (Glycine max) effect on crop grade (Glycine max) | b (Zea mays) effect on crop grade (Zea mays) | d (directly sowed Oryza sativa) effect on crop grade [2] | e (Triticum aestivum) effect on crop grade (Triticum aestivum) | a: transplanted Oryza sativa (effect on crop grade) [3] | R (Veronica persica) herbicidal effect grade (Veronica persica) | G (Setaria viridis) herbicidal effect grade (Setaria viridis) | H (Echinochloa crus-galli var. crus-galli) herbicidal effect grade [4] | P (Stellaria media) herbicidal effect grade (Stellaria media) | J (Alopecurus myosuroides) herbicidal effect grade (Alopecurus myosuroides) | O (Chenopodium album) herbicidal effect grade (Chenopodium album) | I (Avena fatua) herbicidal effect grade (Avena fatua) | Q (Galium spurium) herbicidal effect grade (Galium spurium) | F (Digitaria ciliaris) herbicidal effect grade (Digitaria ciliaris) | M (Abutilon theophrasti) herbicidal effect grade (Abutilon theophrasti) | L (Apera spica-venti.) herbicidal effect grade (Apera spica-venti.) | K (Lolium multiflorum Lam.) herbicidal effect grade (Lolium multiflorum Lam.) | N (Amaranthus retroflexus) herbicidal effect grade (Amaranthus retroflexus)
1 | Cn1nnnc1NC(=O)c1ccc(C(F)(F)F)n2c(C3=NOC(C)(C)C3)nnc12 [2-028] | 5 (Herbicidal ratio of 90% or more (almost completely withered)) | 5 (Herbicidal ratio of 90% or more (almost completely withered)) | 3 (Herbicidal ratio of 40% or more and less than 70%) | 5 (Herbicidal ratio of 90% or more (almost completely withered)) | 4 (Herbicidal ratio of 70% or more and less than 90%) | 4 (Herbicidal ratio of 70% or more and less than 90%) | 5 (Herbicidal ratio of 90% or more (almost completely withered)) | 5 (Herbicidal ratio of 90% or more (almost completely withered)) | 5 (Herbicidal ratio of 90% or more (almost completely withered)) | 5 (Herbicidal ratio of 90% or more (almost completely withered)) | 5 (Herbicidal ratio of 90% or more (almost completely withered)) | 4 (Herbicidal ratio of 70% or more and less than 90%) | 5 (Herbicidal ratio of 90% or more (almost completely withered)) | 4 (Herbicidal ratio of 70% or more and less than 90%) | 4 (Herbicidal ratio of 70% or more and less than 90%) | 5 (Herbicidal ratio of 90% or more (almost completely withered)) | 5 (Herbicidal ratio of 90% or more (almost completely withered)) | 5 (Herbicidal ratio of 90% or more (almost completely withered)) | 4 (Herbicidal ratio of 70% or more and less than 90%) | 5 (Herbicidal ratio of 90% or more (almost completely withered))
2 | CSCc1nnc2c(C(=O)Nc3nnnn3C)ccc(C(F)(F)F)n12 [2-029] | 5 (Herbicidal ratio of 90% or more (almost completely withered)) | 5 (Herbicidal ratio of 90% or more (almost completely withered)) | 4 (Herbicidal ratio of 70% or more and less than 90%) | 5 (Herbicidal ratio of 90% or more (almost completely withered)) | 5 (Herbicidal ratio of 90% or more (almost completely withered)) | 5 (Herbicidal ratio of 90% or more (almost completely withered)) | 5 (Herbicidal ratio of 90% or more (almost completely withered)) | 5 (Herbicidal ratio of 90% or more (almost completely withered)) | 5 (Herbicidal ratio of 90% or more (almost completely withered)) | 5 (Herbicidal ratio of 90% or more (almost completely withered)) | 5 (Herbicidal ratio of 90% or more (almost completely withered)) | 5 (Herbicidal ratio of 90% or more (almost completely withered)) | 5 (Herbicidal ratio of 90% or more (almost completely withered)) | 5 (Herbicidal ratio of 90% or more (almost completely withered)) | 4 (Herbicidal ratio of 70% or more and less than 90%) | 5 (Herbicidal ratio of 90% or more (almost completely withered)) | 5 (Herbicidal ratio of 90% or more (almost completely withered)) | 5 (Herbicidal ratio of 90% or more (almost completely withered)) | 5 (Herbicidal ratio of 90% or more (almost completely withered)) | 5 (Herbicidal ratio of 90% or more (almost completely withered))
3 | Cn1nnnc1NC(=O)c1ccc(C(F)(F)F)n2c(CSCC(F)(F)F)nnc12 [2-030] | 5 (Herbicidal ratio of 90% or more (almost completely withered)) | 5 (Herbicidal ratio of 90% or more (almost completely withered)) | 0 (Herbicidal ratio of 5% or less (almost no effect)) | 5 (Herbicidal ratio of 90% or more (almost completely withered)) | 4 (Herbicidal ratio of 70% or more and less than 90%) | 3 (Herbicidal ratio of 40% or more and less than 70%) | 3 (Herbicidal ratio of 40% or more and less than 70%) | 5 (Herbicidal ratio of 90% or more (almost completely withered)) | 5 (Herbicidal ratio of 90% or more (almost completely withered)) | 5 (Herbicidal ratio of 90% or more (almost completely withered)) | 5 (Herbicidal ratio of 90% or more (almost completely withered)) | 3 (Herbicidal ratio of 40% or more and less than 70%) | 5 (Herbicidal ratio of 90% or more (almost completely withered)) | 4 (Herbicidal ratio of 70% or more and less than 90%) | 3 (Herbicidal ratio of 40% or more and less than 70%) | 5 (Herbicidal ratio of 90% or more (almost completely withered)) | 5 (Herbicidal ratio of 90% or more (almost completely withered)) | 5 (Herbicidal ratio of 90% or more (almost completely withered)) | 3 (Herbicidal ratio of 40% or more and less than 70%) | 5 (Herbicidal ratio of 90% or more (almost completely withered))
4 | CC[S+]([O-])c1nnc2c(C(=O)Nc3nnnn3C)ccc(C(F)(F)F)n12 (centres unmarked) [2-031] | 5 (Herbicidal ratio of 90% or more (almost completely withered)) | 5 (Herbicidal ratio of 90% or more (almost completely withered)) | 5 (Herbicidal ratio of 90% or more (almost completely withered)) | 5 (Herbicidal ratio of 90% or more (almost completely withered)) | 5 (Herbicidal ratio of 90% or more (almost completely withered)) | 5 (Herbicidal ratio of 90% or more (almost completely withered)) | 5 (Herbicidal ratio of 90% or more (almost completely withered)) | 5 (Herbicidal ratio of 90% or more (almost completely withered)) | 5 (Herbicidal ratio of 90% or more (almost completely withered)) | 5 (Herbicidal ratio of 90% or more (almost completely withered)) | 5 (Herbicidal ratio of 90% or more (almost completely withered)) | 4 (Herbicidal ratio of 70% or more and less than 90%) | 5 (Herbicidal ratio of 90% or more (almost completely withered)) | 5 (Herbicidal ratio of 90% or more (almost completely withered)) | 5 (Herbicidal ratio of 90% or more (almost completely withered)) | 5 (Herbicidal ratio of 90% or more (almost completely withered)) | 5 (Herbicidal ratio of 90% or more (almost completely withered)) | 5 (Herbicidal ratio of 90% or more (almost completely withered)) | 5 (Herbicidal ratio of 90% or more (almost completely withered)) | 5 (Herbicidal ratio of 90% or more (almost completely withered))
